# Activity calls are given as the source filed them.
# How the values were obtained:
# [1] = inhibitors of firefly luciferase expression or activity, dose response, H4 neuroglioma cells, luminescence (AID 1990); type: functional, cell-based
# [2] = cells; type: functional, cell-based
# [3] = Luminescence Cell-Based Dose Response HTS to Identify Inhibitors of 5'UTR Stem-Loop Driven Prion Protein mRNA Translation in H4 Neuroglioblastoma Cells. [Related pubchem assays: 1827 (Project Summary), 1813 (Primary HTS)]; type: functional
# [4] = inhibitors of SNCA 5'UTR-driven reporter translation, confirmation, H4 neuroglioma cells, luminescence (AID 1988); type: functional, cell-based
# [5] = cells; type: functional, cell-based; remark: listed apart in the source
# [6] = molecular target: Cytochrome P450 2C9 (Homo sapiens, UniProt P11712)
# Sequence of Cytochrome P450 2C9 (P11712 whole entry): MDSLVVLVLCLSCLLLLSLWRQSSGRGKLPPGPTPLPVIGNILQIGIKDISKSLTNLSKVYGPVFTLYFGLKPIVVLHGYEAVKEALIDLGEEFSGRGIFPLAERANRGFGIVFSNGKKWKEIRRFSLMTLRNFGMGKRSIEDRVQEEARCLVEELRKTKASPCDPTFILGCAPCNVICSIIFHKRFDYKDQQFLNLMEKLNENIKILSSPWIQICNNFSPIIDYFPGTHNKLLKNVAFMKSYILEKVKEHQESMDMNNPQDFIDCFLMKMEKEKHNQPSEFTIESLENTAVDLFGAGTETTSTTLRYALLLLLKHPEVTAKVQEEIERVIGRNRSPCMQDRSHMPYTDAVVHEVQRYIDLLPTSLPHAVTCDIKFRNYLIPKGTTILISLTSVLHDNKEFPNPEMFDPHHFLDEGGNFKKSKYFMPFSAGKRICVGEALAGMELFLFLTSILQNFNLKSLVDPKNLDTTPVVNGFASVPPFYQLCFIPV
# [7] = molecular target: Luciferin 4-monooxygenase (Photinus pyralis, UniProt P08659); assay: firefly luciferase enzyme inhibitors, dose response, biochemical, luminescence (AID 1891)
# Sequence of Luciferin 4-monooxygenase (P08659 whole entry): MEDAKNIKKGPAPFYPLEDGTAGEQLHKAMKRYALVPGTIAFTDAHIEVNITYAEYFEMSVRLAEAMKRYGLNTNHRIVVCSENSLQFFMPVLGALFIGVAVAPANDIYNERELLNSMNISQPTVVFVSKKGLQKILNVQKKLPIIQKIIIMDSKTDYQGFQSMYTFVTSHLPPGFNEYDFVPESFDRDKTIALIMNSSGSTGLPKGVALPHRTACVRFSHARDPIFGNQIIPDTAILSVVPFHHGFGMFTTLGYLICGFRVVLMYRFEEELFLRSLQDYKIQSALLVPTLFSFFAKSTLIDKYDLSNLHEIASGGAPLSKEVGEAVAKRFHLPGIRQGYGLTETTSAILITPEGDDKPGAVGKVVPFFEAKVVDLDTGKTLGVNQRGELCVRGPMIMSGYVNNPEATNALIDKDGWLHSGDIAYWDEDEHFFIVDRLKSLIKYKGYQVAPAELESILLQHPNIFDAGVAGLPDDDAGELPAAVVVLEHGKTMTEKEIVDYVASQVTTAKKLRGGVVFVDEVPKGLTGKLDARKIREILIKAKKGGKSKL
# [8] = Luminescence Cell-Based Dose Confirmation HTS to Identify Inhibitors of Platelet Dense Granule Release. [Related pubchem assays: 1663 (Primary HTS), 1678 (Summary of Project)]; type: functional
# [9] = Shn3 3'UTR reporter inhibitors, dose response, cell-based, Clone20 osteoblasts, firefly luciferase, cherry-picked (AID 624132); type: functional;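 also: firefly luciferase luminescence from reporter carrying the Shn3 3'UTR in osteoblasts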
# [10] = HepG2 cell cytotoxicity, dose response, cytotoxicity control for Shn3 inhibitor project, CellTiter-Glo, cherry-picked (AID 624134); type: functional, cell-based
# [11] = control 3'UTR Renilla luciferase suppression, dose response, counter-screen for Shn3 inhibitor project, cell-based, Clone20-Shn3RL, cherry-picked (AID 624133); type: functional
# [12] = test system: Streptococcus sp. 'group A'; assay: growth inhibition of control SK(-) GAS strain, dose response, counter-screen for streptokinase expression inhibitor project, luminescence, kanamycin, BacTiterGlo, confirmation (AID 1900); type: functional, organism-based
# [13] = molecular target: T1, Streptokinase A (Streptococcus pyogenes serotype M1, UniProt P10520); assay: S. pyogenes streptokinase expression inhibitors, potency, dose response, plasminogen activation absorbance, OD405 (AID 1914); type: functional, Streptococcus pyogenes M1 GAS;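 also: secreted streptokinase activity via plasminogen activation per viability signal from cell pellet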
# T1 sequence (P10520 whole entry): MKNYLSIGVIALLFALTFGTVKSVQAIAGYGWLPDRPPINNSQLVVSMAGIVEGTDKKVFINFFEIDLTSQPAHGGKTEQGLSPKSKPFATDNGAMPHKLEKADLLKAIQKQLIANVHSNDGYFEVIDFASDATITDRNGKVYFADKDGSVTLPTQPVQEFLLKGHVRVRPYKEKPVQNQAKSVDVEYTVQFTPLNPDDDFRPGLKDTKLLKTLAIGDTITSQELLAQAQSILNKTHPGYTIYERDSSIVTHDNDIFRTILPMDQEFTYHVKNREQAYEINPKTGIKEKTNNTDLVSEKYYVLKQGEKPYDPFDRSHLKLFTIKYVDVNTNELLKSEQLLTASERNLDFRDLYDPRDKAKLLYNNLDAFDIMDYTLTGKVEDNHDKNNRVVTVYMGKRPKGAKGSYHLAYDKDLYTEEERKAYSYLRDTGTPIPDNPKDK
# [14] = test system: Streptococcus; assay: Group A Streptococcus viability loss, dose response, counter-screen for streptokinase expression inhibitor project, luminescence, BacTiterGlo (AID 1915); type: functional, organism-based;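 also: potency for reduction of bacterial viability or growth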
# [15] = inhibitors of intracellular T. cruzi replication, confirmation, NIH3T3 host cells, beta-gal luminescence (AID 2044); type: functional, cell-based;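 also: intracellular parasites grown in NIH/3T3 mouse fibroblasts as host cells; luminescent beta-galactosidase reporter signal from transgenic T. cruzi replicating inside host cells; inhibitors lower the luminescence signal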
# [16] = cytotoxicity toward NIH3T3 fibroblasts, dose response, counter-screen, cell-based, ATP luminescence, mouse fibroblasts (AID 2010); type: functional;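 also: cells exposed to compound for about 90 hours before reading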
# [17] = molecular target: Cytochrome P450 2C19 (Homo sapiens, UniProt P33261); assay: Cytochrome panel assay with activity outcomes. Panel member name: p450-cyp2c19 Compounds with AC50 equal or less than 10 uM are considered active; type: functional; conditions: read-out: AC50
# Sequence of Cytochrome P450 2C19 (P33261 whole entry): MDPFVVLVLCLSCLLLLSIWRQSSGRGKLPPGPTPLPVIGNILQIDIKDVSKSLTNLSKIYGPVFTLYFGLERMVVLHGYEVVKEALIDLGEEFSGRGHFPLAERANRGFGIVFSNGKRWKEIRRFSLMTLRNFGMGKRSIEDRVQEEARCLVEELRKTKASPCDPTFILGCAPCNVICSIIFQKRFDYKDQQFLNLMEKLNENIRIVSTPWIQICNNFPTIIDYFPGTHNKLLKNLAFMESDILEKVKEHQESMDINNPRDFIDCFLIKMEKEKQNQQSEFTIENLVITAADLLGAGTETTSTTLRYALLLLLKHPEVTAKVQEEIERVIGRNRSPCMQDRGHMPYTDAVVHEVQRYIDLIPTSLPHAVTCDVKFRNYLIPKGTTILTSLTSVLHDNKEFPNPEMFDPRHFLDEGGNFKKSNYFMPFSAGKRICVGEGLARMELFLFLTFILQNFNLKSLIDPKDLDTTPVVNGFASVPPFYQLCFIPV
# [18] = molecular target: T2, Corticotropin-releasing factor receptor 2/Corticotropin-releasing factor-binding protein (Homo sapiens, UniProt P24387+Q13324); assay: Dose Response confirmation of uHTS hits for small molecule antagonists of the CRF-binding protein and CRF-R2 receptor complex.; type: functional; conditions: read-out: IC50_Mean
# T2 sequence (Q13324 whole entry): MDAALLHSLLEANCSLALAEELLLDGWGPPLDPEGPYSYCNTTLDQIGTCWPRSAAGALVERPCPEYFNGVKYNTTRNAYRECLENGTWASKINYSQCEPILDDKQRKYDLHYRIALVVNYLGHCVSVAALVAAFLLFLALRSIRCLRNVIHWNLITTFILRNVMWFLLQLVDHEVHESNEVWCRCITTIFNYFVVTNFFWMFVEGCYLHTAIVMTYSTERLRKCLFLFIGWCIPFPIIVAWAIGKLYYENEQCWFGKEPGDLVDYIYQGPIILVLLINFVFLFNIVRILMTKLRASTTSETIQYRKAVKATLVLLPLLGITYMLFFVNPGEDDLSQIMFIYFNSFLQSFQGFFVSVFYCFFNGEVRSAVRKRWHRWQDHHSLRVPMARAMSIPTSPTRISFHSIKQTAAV
# T2 sequence (P24387 whole entry): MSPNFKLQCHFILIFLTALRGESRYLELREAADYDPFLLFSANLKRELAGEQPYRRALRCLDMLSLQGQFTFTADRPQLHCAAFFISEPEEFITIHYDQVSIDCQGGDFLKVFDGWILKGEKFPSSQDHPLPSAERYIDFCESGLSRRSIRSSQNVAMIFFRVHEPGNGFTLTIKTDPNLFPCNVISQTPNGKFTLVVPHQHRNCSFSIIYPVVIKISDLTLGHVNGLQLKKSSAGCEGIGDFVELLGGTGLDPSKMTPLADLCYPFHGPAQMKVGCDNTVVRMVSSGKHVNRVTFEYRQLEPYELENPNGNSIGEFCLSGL
# [19] = molecular target: T2, Corticotropin-releasing factor receptor 2/Corticotropin-releasing factor-binding protein; assay: activators of CRF receptor 2 with binding protein – uHTS hits, confirmation (AID 602473); type: functional; conditions: read-out: EC50_Mean
smiles,measurement,setting,value
CC(C)c1ccc(-c2c(C#N)c(N)nc3c2CCCCC3)cc1,EC50,[1],> 120 µM (not active)
same,EC50,[2],> 350 µM (not active)
same,EC50,[3],> 120 µM (not active)
same,EC50,[4],41.9 µM (active)
same,EC50,[5],> 350 µM (not active)
CCOC(=O)c1c(NC(=O)CCc2ccc(CC)o2)sc(C)c1C,AC50,[6],inconclusive
O=S(=O)(c1ccc(F)cc1)N(Cc1ccco1)Cc1cc2ccccc2nc1O,EC50,[7],> 112 µM (not active)
same,EC50,[8],> 112 µM (not active)
COc1ccc(S(=O)(=O)N2CCN(C(=O)c3cc(-c4ccc(Br)cc4)[nH]n3)CC2)cc1OC,AC50,[9],4.55 µM (active)
same,AC50,[10],55.6 µM (active)
same,AC50,[11],4.76 µM (active)
Cc1ccc2cc3cc(C(=O)N4CCC5(CC4)OCCO5)oc3nc2c1,AC50,[6],inconclusive
Cn1ccnc1SCC(=O)Nc1ccc2c(c1)OC(F)(F)O2,EC50,[7],> 112 µM (not active)
same,EC50,[8],> 112 µM (not active)
COc1ccc(-c2cc3nc(-c4ccccc4)cc(N4CCCC(O)C4)n3n2)cc1 (configuration not stated),EC50,[12],6.75 µM (active)
same,EC50,[13],> 150 µM (not active)
same,EC50,[14],14.3 µM (active)
CCOC(=O)c1c(NC(S)=NCCc2ccccc2)sc2c1CC(C(C)C)OC2 (configuration not stated),EC50,[12],0.814 µM (active)
same,EC50,[13],> 150 µM (not active)
same,EC50,[14],15.1 µM (active)
CC(C)(C)n1nnnc1C(c1cccs1)N1CCCC2(CCCCC2)C1 (configuration not stated),EC50,[15],2.15 µM (active)
same,EC50,[16],> 60 µM (not active)
same,AC50,[9],21.7 µM (active)
same,AC50,[10],> 70 µM (inactive)
COC(=O)N/N=C\C=C\c1ccc2c(c1)OCO2,AC50,[6],inconclusive
CCn1nnnc1SCC(=O)NC1CCCC1,EC50,[7],> 112 µM (not active)
same,EC50,[8],> 112 µM (not active)
same,AC50,[17],35.5 µM (inconclusive)
COc1ccccc1N(C)S(=O)(=O)c1ccc(C(=O)Nc2cc(F)ccc2C)cc1,AC50,[9],13.8 µM (active)
same,AC50,[10],> 70 µM (inactive)
same,AC50,[11],26.5 µM (active)
CCCCCOc1ccc(Br)cc1CSC(=N)N,AC50,[9],1.47 µM (active)
same,AC50,[10],11.3 µM (active)
same,AC50,[11],10.5 µM (active)
COc1ccc(CC(N)c2csc(NC(=O)c3cc(C(C)(C)C)nn3Cc3ccccc3)n2)cc1 (configuration not stated),AC50,[9],9.53 µM (active)
same,AC50,[10],9.69 µM (active)
same,AC50,[11],22.9 µM (active)
Cc1nc(N)sc1-c1csc(N(C)c2ccc(O)cc2)n1,EC50,[12],5.24 µM (active)
same,EC50,[13],> 150 µM (not active)
same,EC50,[14],95.2 µM (active)
same,IC50,[18],> 47.1 µM (inactive)
same,EC50,[19],> 53 µM (inactive)
COc1ccc(CCNC(=O)c2ccc(CNS(=O)(=O)c3ccc(C(C)(C)C)cc3)cc2)cc1OC,EC50,[13],> 150 µM (not active)
same,EC50,[14],35.9 µM (active)
COc1cccc(C(=O)NC(=S)Nc2ccccc2N2CCCCC2)c1,EC50,[12],57.8 µM (active)
same,EC50,[13],41 µM (active)
same,EC50,[14],> 150 µM (not active)

# Reference: ChEMBL document CHEMBL1201862, “PubChem BioAssay data set” (2004)
